# Results published in patent US11576866B2, “Gastric residence systems for sustained delivery of adamantane-class drugs” (Lyndra Therapeutics, Inc., priority 2016, dated 2023).
# How the values were obtained:
# [1] = PCL/SGF partition coefficient; type: physicochemical; conditions: 5:1 PCL diol (MW 530):ethyl acetate vs FaSSGF
# From the text: Partitioning behavior of an adamantane-class drug can be measured between a polycaprolactone phase (PCL phase) and a simulated gastric fluid phase (SGF phase), to give the partition coefficient PPCL-SGF between the two phases. Log PPCL-SGF can also be calculated. A 5:1 mixture of polycaprolactone diol (MW 530):ethyl acetate can be used as the PCL phase, and fasted-state simulated gastric fluid (FaSSGF) can be used as the SGF phase, such that PPCL-SGF=(concentration in polycaprolactone diol)/(concentration in FaSSGF)).
# Partitioning of active pharmaceutical ingredient (API), such as an adamantane-class drug such as memantine, between the structural polymer, polycaprolactone (PCL), and fasted state simulated gastric fluid (FaSSGF) is of interest for predicting API release rate from PCL-based formulations. To measure the PCL-SGF partition coefficient of an API, a concentrated stock solution of API was added to a mixture of 1 mL FaSSGF and 1 mL of 5:1 PCL diol (MW 530):ethyl acetate. The sample was vortexed and centrifuged at 10000 rpm for 5 minutes. The SGF phase was analyzed by HPLC to measure drug concentration. The PCL phase was diluted in methanol prior to quantification on HPLC.
# [2] = human; input parameter of simulation; cited from earlier work
# [3] = cited from earlier work
# [4] = Thermal stability of memantine during hot melt processing; type: physicochemical; conditions: blended with polymer (20% drug, 2% P407, 20% Eudragit RS, PCL); up to 160° C. for up to 20 minutes
# Procedure: The stability of memantine under conditions of hot melt processing was tested. The formulation used for hot melt processing was 20% drug, 0.5% SiO2, 0.5% alpha tocopherol, 2% P407, 20% Eudragit RS, with the balance of material made up of PCL.
# [5] = Therapeutic plasma concentrations of memantine (literature); type: in vivo; conditions: conversion of 1 micromolar
# Procedure: The maximum therapeutically relevant concentration of memantine is approximately 1 micromolar (Rammes et al., Curr. Neuropharmacol. 6(1): 55-78 (2008)), corresponding to a plasma level of about 180 ng/mL. A recommended therapeutic range is about 90 ng/mL to 150 ng/mL, while the laboratory alert value is 300 ng/mL (Hiemke et al., Pharmacopsychiatry 44:195 (2011)).
# [6] = dog, one compartment model; assumed input of the analysis; cited from earlier work
smiles,measurement,setting,value
CC12CC3CC(C)(C1)CC(N)(C3)C2 [memantine],PCL/SGF Partition Coefficient,[1],0.28
same,clearance (CL),[2],5.2 L/h
same,mean volume of distribution,[2],9 to 11 L/kg
same,rate of absorption (Ka),[2],0.21 h⁻¹
same,laboratory alert value (plasma),[3]; Hiemke et al. 2011,300 ng/mL
same,maximum therapeutically relevant concentration,[3]; Rammes et al. 2008,approximately 1 micromolar
same,degradation during hot melt processing,[4],without significant degradation
same,plasma level corresponding to maximum therapeutically relevant concentration,[5],about 180 ng/mL
same,elimination rate constant (ke),[6],0.076 h⁻¹
